Data from patent US11434242B2, “Dopamine-b-hydroxylase inhibitors” (BIAL-PORTELA & Cª, S.A., priority 2017, dated 2022).
Counter-ions that a name gives are not always drawn.

Biological target: T1, Dopamine beta hydroxylase (Rattus norvegicus, UniProt Q05754)
T1 construct: Samples were constituted by the right and left adrenals of each animal; from tissue; host or cells: Wistar rat adrenal glands (homogenate)
T1 sequence (Q05754 1-620): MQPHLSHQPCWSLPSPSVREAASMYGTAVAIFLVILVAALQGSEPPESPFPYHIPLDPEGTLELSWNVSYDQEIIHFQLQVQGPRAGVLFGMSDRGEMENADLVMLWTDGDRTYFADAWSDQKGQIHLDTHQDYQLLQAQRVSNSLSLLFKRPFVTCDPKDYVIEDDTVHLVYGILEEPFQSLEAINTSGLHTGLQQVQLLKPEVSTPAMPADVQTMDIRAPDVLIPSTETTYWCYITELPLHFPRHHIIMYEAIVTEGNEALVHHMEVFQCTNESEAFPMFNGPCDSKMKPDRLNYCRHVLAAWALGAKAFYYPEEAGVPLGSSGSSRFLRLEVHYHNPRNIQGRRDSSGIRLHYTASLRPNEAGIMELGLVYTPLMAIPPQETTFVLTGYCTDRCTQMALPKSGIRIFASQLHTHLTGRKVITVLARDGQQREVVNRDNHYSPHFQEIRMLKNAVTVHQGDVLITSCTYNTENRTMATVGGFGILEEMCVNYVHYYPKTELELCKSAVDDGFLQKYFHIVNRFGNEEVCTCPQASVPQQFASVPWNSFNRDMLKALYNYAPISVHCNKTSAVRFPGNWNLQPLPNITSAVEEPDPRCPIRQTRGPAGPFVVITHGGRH
Assay: DβH activity in rat adrenal gland homogenates after oral administration
Format: in vivo
Settings: 10 mg/kg oral; for DβH activity in ADR (% Control): rat adrenal gland homogenates, maximal within 6 h post-dose, mean±SD of 4 rats; for DβH inhibition in peripheral tissues such as ADR: rat
Protocol: Dopamine beta hydroxylase activity in rat adrenal gland homogenates was measured by the method of Nagatsu and Udenfriend (Nagatsu, T. and Udenfriend, S. “Photometric assay of dopamine-μ-hydroxylase activity in human blood.” Clin. Chem. 18(9) 980-983, 1972) with minor modifications. Catalase, N-ethylmaleimide, tyramine, disodium fumarate, pargyline, sodium acetate, ascorbic acid, copper sulfate and octopamine were obtained from Sigma Chemical Co., St. Louis, Mo. 63178. Test compounds were prepared in kleptose 40% at a concentration of 0.75, 2.5 or 7.5 mg/mL to be administered at a dose of 10 mg/kg. Compounds and vehicle (kleptose 40%) were administered to wistar rats and adrenals were collected 0.5 h, 1 h, 2 h, 4 h, 6 h, 8 h, 15 h and 24 h after administration. Samples were constituted by the right and left adrenals of each animal. Adrenals were stored in 200 μL of 50 mM Tris pH 7.4 at −30° C., from date of collection. The samples were homogenized and homogenates were then quantified for protein. Protein concentration was adjusted to 1.6 mg/ml. The various reagents used to make up the incubation buffer were premixed and consisted of the following components: sodium acetate buffer (1 M, pH 5.0, 6.0 mL), sodium fumarate (0.2 M, 1.5 mL), ascorbic acid (0.2 M, 1.5 mL, freshly prepared), pargyline (20 mM, freshly prepared, 1.5 mL), N-ethylmaleimide (0.2 M, 1.5 mL), catalase (55 000 U/ml, 3 mL), copper sulfate (90 μM, 1.67 mL) and ultrapure water (1.33 mL). The standard incubation mixture (total volume, 500 μL) contained: 350 μL of incubation buffer; 125 μL of protein sample (or buffer for blank reaction or standard curve). The reaction mixture was placed in water bath with shaking at 37° C. and pre-incubated for 10 minutes. Tyramine (0.4 M, 25 μL) was added and incubation proceeded for 45 minutes. The reaction contents were exposed to air. A sample of enzyme preparation (with 125 μL of protein sample) that had been added perchloric acid 2 M at the end of the pre-incubation period was used as blank. A blank for each of the tested compounds was used. For octopamine standard curve, perchloric acid 2 M was replaced by increasing concentrations of octopamine prepared in perchloric acid 2 M (0.5, 1, 2.5, 5, 7.5, 10 μg/mL, final concentration). The incubation was stopped by adding 50 μL of 2 M molar perchloric acid, and the mixture was centrifuged at 16000 g for 3 min. The supernatant fluid (500 μL) was transferred to a column (SPE cartridge ISOLUTE SCX-3, 100 mg) and centrifuged at 150 g for 2 min. The column was washed two more times with 0.5 ml of ultrapure water by centrifuging at 150 g for 2 min. The adsorbed octopamine was eluted twice with 250 μL of 4 M ammonium hydroxide by centrifuging at 150 g for 2 min. Octopamine in the eluate was then converted to p-hydroxybenzaldehyde by adding 100 μL of sodium periodate (2%) and incubating for 6 min. Excess periodate was than reduced by adding 100 μl of sodium metabisulfite (10%). Absorbance was measured at […] in a 96 well plate by use of a SpectraMAX plus 384 (Molecular Devices) with software SOFTmax® PRO Software 5.3 spectrophotometer. Absorbance was linear with octopamine concentration from 0.5 to 10 μg/mL. Dopamine beta hydroxylase activity is determined as nmol of octopamine formed/mg of protein/hour and effect of compounds is presented as % of control.

SMILES | DβH activity in ADR (% Control) | DβH inhibition in peripheral tissues such as ADR
Cl.Fc1ccc(Cl)cc1[C@]12C[C@H]1c1c(CCN3CCOCC3)[nH]c(=S)n1C2 [Example 174, (5aS,6aR)-5a-(5-chloro-2-fluorophenyl)-1-(2-morpholinoethyl)-5,5a,6,6a-tetrahydrocyclopropa[3,4]pyrrolo[1,2-c]imidazole-3(2H)-thione hydrochloride] | 39 ± 18 | inhibit DβH
F.Fc1ccc(Br)cc1[C@]12C[C@H]1c1c(CCN3CCOCC3)[nH]c(=S)n1C2 [Example 191, (5aS,6aR)-5a-(5-bromo-2-fluorophenyl)-1-(2-morpholinoethyl)-5,5a,6,6a-tetrahydrocyclopropa[3,4]pyrrolo[1,2-c]imidazole-3(2H)-thione hydrofluoride] | 45 ± 8 | inhibit DβH
Fc1ccc(Br)c(F)c1[C@@H]1Cc2c(CCN3CCOCC3)[nH]c(=S)n2C1 [Example 195, (S)-6-(3-bromo-2,6-difluorophenyl)-1-(2-morpholinoethyl)-2,5,6,7-tetrahydro-3H-pyrrolo[1,2-c]imidazole-3-thione] | 21 ± 9 | inhibit DβH
Fc1cc(F)c(F)c([C@H]2Cc3c(CCCN4CCCC4)[nH]c(=S)n3C2)c1F [Example 219, (R)-1-(3-(pyrrolidin-1-yl)propyl)-6-(2,3,5,6-tetrafluorophenyl)-2,5,6,7-tetrahydro-3H-pyrrolo[1,2-c]imidazole-3-thione hydrochloride] | 43 ± 16 | inhibit DβH
Cn1c(CC(=O)O)c2n(c1=S)C[C@@]1(c3c(F)ccc(Cl)c3F)C[C@@H]21 [Example 231, 2-((5aS,6aR)-5a-(3-chloro-2,6-difluorophenyl)-2-methyl-3-thioxo-2,3,5,5a,6,6a-hexahydrocyclopropa[3,4]pyrrolo[1,2-c]imidazol-1-yl)acetic Acid] | 43 ± 9 | inhibit DβH
Cl.Cn1c(CCN[C@@H]2CCOC2)c2n(c1=S)C[C@H](c1c(F)ccc(Br)c1F)C2 [Example 256, (S)-6-(3-bromo-2,6-difluorophenyl)-2-methyl-1-(2-(((R)-tetrahydrofuran-3-yl)amino)ethyl)-2,5,6,7-tetrahydro-3H-pyrrolo[1,2-c]imidazole-3-thione hydrochloride] | 44 ± 22 | inhibit DβH
CN(C(=O)Cc1c2n(c(=S)n1C)C[C@@]1(c3c(F)ccc(Cl)c3F)C[C@@H]21)C1COC1 [Example 403, 2-((5aS,6aR)-5a-(3-chloro-2,6-difluorophenyl)-2-methyl-3-thioxo-2,3,5,5a,6,6a-hexahydrocyclopropa[3,4]pyrrolo[1,2-c]imidazol-1-yl)-N-methyl-N-(oxetan-3-yl)acetamide] | 0 ± 0 | inhibit DβH
